Results as given in ChEMBL document CHEMBL5154863, “Design and synthesis of quinolinium-based derivatives targeting FtsZ for antibacterial evaluation and mechanistic study” (Eur J Med Chem, 2022).
Values after ≈ are worked out from the molar mass of the structure shown. Active and inactive are the calls of the source. The rule behind the calls is not given here.

Legend:
[1] = Ratio of MBC for bactericidal activity against Bacillus subtilis CMCC (B) 63501 to MIC for antibacterial activity against Bacillus subtilis CMCC (B) 63501; type: functional
[2] = Ratio of MBC for bactericidal activity against Enterococcus faecium ATCC 700221 to MIC for antibacterial activity against Enterococcus faecium ATCC 700221; type: functional
[3] = target: T1, Cell division protein FtsZ (Staphylococcus aureus) (UniProt P0A031); test: Induction of Staphylococcus aureus FtsZ polymerization expressed in Escherichia coli BL21 (DE3) assessed as increase in absorbance at 2 to 8 ug/ml in presence of GTP by microplate reader method; conditions: dose 2-8 µg/ml, DDE = dose-dependent effect
T1 sequence (whole entry): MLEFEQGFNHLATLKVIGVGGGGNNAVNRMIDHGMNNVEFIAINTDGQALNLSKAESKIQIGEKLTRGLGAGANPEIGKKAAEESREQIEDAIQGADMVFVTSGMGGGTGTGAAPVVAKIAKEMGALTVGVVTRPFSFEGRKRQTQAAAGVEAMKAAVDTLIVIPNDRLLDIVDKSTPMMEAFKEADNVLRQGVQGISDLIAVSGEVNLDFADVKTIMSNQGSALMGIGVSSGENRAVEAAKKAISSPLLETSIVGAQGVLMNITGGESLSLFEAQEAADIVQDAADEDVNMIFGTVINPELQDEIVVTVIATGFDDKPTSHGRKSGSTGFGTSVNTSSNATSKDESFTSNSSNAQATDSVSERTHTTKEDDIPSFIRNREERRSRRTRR

Staphylococcus aureus [4] = test: Antibacterial activity against Staphylococcus aureus ATCC 29213 assessed as inhibition of bacterial growth incubated for 20 to 24 hrs by broth micro dilution method; type: functional; conditions: time 20-24 hrs
Staphylococcus aureus [5] = test: Antibacterial activity against methicillin-resistant Staphylococcus aureus ATCC 43300 assessed as inhibition of bacterial growth incubated for 20 to 24 hrs by broth micro dilution method; type: functional; conditions: time 20-24 hrs
Staphylococcus aureus [6] = test: Antibacterial activity against methicillin-resistant Staphylococcus aureus ATCC 33592 assessed as inhibition of bacterial growth incubated for 20 to 24 hrs by broth micro dilution method; type: functional; conditions: time 20-24 hrs
Staphylococcus aureus [7] = test: Antibacterial activity against methicillin-resistant Staphylococcus aureus ATCC BAA-1720 assessed as inhibition of bacterial growth incubated for 20 to 24 hrs by broth micro dilution method; type: functional; conditions: time 20-24 hrs
Staphylococcus aureus [8] = test: Antibacterial activity against vancomycin-intermediate Staphylococcus aureus Mu50 assessed as inhibition of bacterial growth incubated for 20 to 24 hrs by broth micro dilution method; type: functional; conditions: time 20-24 hrs
[9] = tested on: Staphylococcus epidermidis; test: Antibacterial activity against Staphylococcus epidermidis ATCC 12228 assessed as inhibition of bacterial growth incubated for 20 to 24 hrs by broth micro dilution method; type: functional; conditions: time 20-24 hrs
Bacillus subtilis [10] = test: Antibacterial activity against Bacillus subtilis CMCC (B) 63501 assessed as inhibition of bacterial growth incubated for 20 to 24 hrs by broth micro dilution method; type: functional; conditions: time 20-24 hrs
Enterococcus faecium [11] = test: Antibacterial activity against Enterococcus faecium ATCC 49624 assessed as inhibition of bacterial growth incubated for 20 to 24 hrs by broth micro dilution method; type: functional; conditions: time 20-24 hrs
Enterococcus faecalis = test: Antibacterial activity against Enterococcus faecalis ATCC 29212 assessed as inhibition of bacterial growth incubated for 20 to 24 hrs by broth micro dilution method; type: functional; conditions: time 20-24 hrs
Enterococcus faecium [12] = test: Antibacterial activity against vancomycin resistant Enterococcus faecium ATCC 700221 assessed as inhibition of bacterial growth incubated for 20 to 24 hrs by broth micro dilution method; type: functional; conditions: time 20-24 hrs
Enterococcus faecium [13] = test: Antibacterial activity against vancomycin-resistant Enterococcus faecium clinical isolate assessed as inhibition of bacterial growth incubated for 20 to 24 hrs by broth micro dilution method; type: functional; conditions: time 20-24 hrs
Escherichia coli [14] = test: Antibacterial activity against Escherichia coli ATCC 25922 assessed as inhibition of bacterial growth incubated for 20 to 24 hrs by broth micro dilution method; type: functional; conditions: time 20-24 hrs
Escherichia coli [15] = test: Antibacterial activity against Escherichia coli ATCC 8739 assessed as inhibition of bacterial growth incubated for 20 to 24 hrs by broth micro dilution method; type: functional; conditions: time 20-24 hrs
Escherichia coli [16] = test: Antibacterial activity against NDM-1 expressing Escherichia coli ATCC BAA2469 assessed as inhibition of bacterial growth incubated for 20 to 24 hrs by broth micro dilution method; type: functional; conditions: time 20-24 hrs
Acinetobacter baumannii = test: Antibacterial activity against multi-drug resistant Acinetobacter baumannii ATCC 19606 assessed as inhibition of bacterial growth incubated for 20 to 24 hrs by broth micro dilution method; type: functional; conditions: time 20-24 hrs
Pseudomonas aeruginosa = test: Antibacterial activity against […] Pseudomonas aeruginosa ATCC 27853 assessed as inhibition of bacterial growth incubated for 20 to 24 hrs by broth micro dilution method; type: functional; conditions: time 20-24 hrs
Klebsiella pneumoniae = test: Antibacterial activity against NDM-1 expressing Klebsiella pneumoniae ATCC BAA 2470 assessed as inhibition of bacterial growth incubated for 20 to 24 hrs by broth micro dilution method; type: functional; conditions: time 20-24 hrs
Bacillus subtilis [17] = test: Bactericidal activity against Bacillus subtilis CMCC (B) 63501 assessed as inhibition of bacterial growth incubated for 24 hrs by resazurin dye based microtiter plate assay; type: functional
Staphylococcus aureus [18] = test: Bactericidal activity against Staphylococcus aureus ATCC 29213 assessed as inhibition of bacterial growth incubated for 24 hrs by resazurin dye based microtiter plate assay; type: functional
Staphylococcus aureus [19] = test: Bactericidal activity against Staphylococcus aureus ATCC 43300 assessed as inhibition of bacterial growth incubated for 24 hrs by resazurin dye based microtiter plate assay; type: functional
Enterococcus faecium [20] = test: Bactericidal activity against Enterococcus faecium ATCC 700221 assessed as inhibition of bacterial growth incubated for 24 hrs by resazurin dye based microtiter plate assay; type: functional
[21] = Ratio of MBC for bactericidal activity against Staphylococcus aureus ATCC 29213 to MIC for antibacterial activity against Staphylococcus aureus ATCC 29213; type: functional
[22] = Ratio of MBC for bactericidal activity against Staphylococcus aureus ATCC 43300 to MIC for antibacterial activity against Staphylococcus aureus ATCC 43300; type: functional
Staphylococcus aureus [23] = test: Antibacterial activity against methicillin-resistant Staphylococcus aureus ATCC BAA41 assessed as fractional inhibitory concentration index incubated for 24 hrs by checker board assay; type: functional
Staphylococcus aureus [24] = test: Antibacterial activity against methicillin-resistant Staphylococcus aureus ATCC BAA41 assessed as inhibition of bacterial growth incubated for 24 hrs by checker board assay; type: functional
Staphylococcus aureus [25] = test: Synergistic antibacterial activity against methicillin-resistant Staphylococcus aureus ATCC BAA41 assessed as inhibition of bacterial growth incubated for 24 hrs in presence of methicillin by checker board assay; type: functional
Bacillus subtilis [26] = test: Induction of morphological changes in Bacillus subtilis CMCC (B) 63501 assessed as elongation of bacterial cell at 0.5 times MIC for 4 hrs (reference value: 3 to 5 um) by microscopic analysis; type: functional
Staphylococcus aureus [27] = test: Induction of morphological changes in Staphylococcus aureus ATCC 29213 assessed as enlargement of cell size at 0.5 times MIC for 4 hrs by microscopic analysis; type: functional, organism-based
[28] = target: T1, Cell division protein FtsZ (Staphylococcus aureus); test: Induction of Staphylococcus aureus FtsZ polymerization expressed in Escherichia coli BL21 (DE3) assessed as increase in absorbance at 2 to 8 ug/ml by microplate reader method; conditions: dose 2-8 µg/ml
[29] = target: T1, Cell division protein FtsZ (Staphylococcus aureus); test: Binding affinity to Staphylococcus aureus FtsZ assessed as equilibrium binding constant by isothermal titration calorimetry
[30] = target: T1, Cell division protein FtsZ (Staphylococcus aureus); test: Binding affinity to Staphylococcus aureus FtsZ assessed as increase in alpha helix structure at 8 ug/ml incubated for 30 mins by circular dichroism method; conditions: dose 8.0 µg/ml
[31] = target: T1, Cell division protein FtsZ (Staphylococcus aureus); test: Binding affinity to Staphylococcus aureus FtsZ assessed as decrease in beta turn structure at 8 ug/ml incubated for 30 mins by circular dichroism method; conditions: dose 8.0 µg/ml
[32] = target: T1, Cell division protein FtsZ (Staphylococcus aureus); test: Binding affinity to Staphylococcus aureus FtsZ assessed as decrease in random coil structure at 8 ug/ml incubated for 30 mins by circular dichroism method; conditions: dose 8.0 µg/ml
[33] = target: T1, Cell division protein FtsZ (Staphylococcus aureus); test: Binding affinity to Staphylococcus aureus FtsZ assessed as decrease in other structure at 8 ug/ml incubated for 30 mins by circular dichroism method; conditions: dose 8.0 µg/ml
[34] = target: T2, Cell division protein FtsZ (Staphylococcus aureus, UniProt P0A031); test: Binding affinity to Staphylococcus aureus FtsZ assessed as dissociation constant by isothermal titration calorimetry
T2 sequence (P0A031 whole entry): T1 sequence (whole entry)

Erythrocyte = test: Hemolytic activity in Kunming mouse erythrocyte at 1 to 64 ug/ml incubated for 1 hr; type: toxicity, cell-based; conditions: dose 1-64 µg/ml
[35] = Cytotoxicity against mouse L929 cells incubated for 48 hrs by MTT assay; type: toxicity, cell-based
[36] = Cytotoxicity against human HK-2 cells incubated for 48 hrs by MTT assay; type: toxicity, cell-based
Staphylococcus aureus [37] = test: Antibacterial activity against Staphylococcus aureus ATCC 29213 infected in L929 cells assessed as inhibition of bacterial growth incubated for 20 to 24 hrs by broth micro dilution method; type: functional; conditions: time 20-24 hrs
Staphylococcus aureus [38] = test: Antibacterial activity against Staphylococcus aureus ATCC 29213 infected in HK-2 cells assessed as inhibition of bacterial growth incubated for 20 to 24 hrs by broth micro dilution method; type: functional; conditions: time 20-24 hrs
Staphylococcus aureus [39] = test: Induction of drug resistance against Staphylococcus aureus ATCC 29213 assessed as fold increase in MIC after 16 passage; type: functional
Bacillus subtilis [40] = test: Induction of drug resistance against Bacillus subtilis CMCC (B) 63501 measured after 16 passages; type: functional; conditions: dose <= 64.0 µg/ml, time 30.0 min

CC1CCN(c2cc(/C=C/c3ccc(N(C)C)cc3)c3ccccc3[n+]2C)CC1.[I-]
Ratio [1]: 2
Ratio [2]: 4
Activity [3]: Dde
MIC (Staphylococcus aureus [4]): 2 µg/mL
MIC (Staphylococcus aureus [5]): 4 µg/mL
MIC (Staphylococcus aureus [6]): 4 µg/mL
MIC (Staphylococcus aureus [7]): 4 µg/mL
MIC (Staphylococcus aureus [8]): 4 µg/mL
MIC [9]: 1 µg/mL
MIC (Bacillus subtilis [10]): 8 µg/mL
MIC (Enterococcus faecium [11]): 16 µg/mL
MIC (Enterococcus faecalis): 16 µg/mL
MIC (Enterococcus faecium [12]): 2 µg/mL
MIC (Enterococcus faecium [13]): 16 µg/mL
MIC (Escherichia coli [14]): 32 µg/mL
MIC (Escherichia coli [15]): 64 µg/mL
MIC (Escherichia coli [16]): 64 µg/mL
MIC (Acinetobacter baumannii): > 64 µg/mL
MIC (Pseudomonas aeruginosa): > 64 µg/mL
MIC (Klebsiella pneumoniae): > 64 µg/mL
MBC (Bacillus subtilis [17]): 16 µg/mL
MBC (Staphylococcus aureus [18]): 16 µg/mL
MBC (Staphylococcus aureus [19]): 32 µg/mL
MBC (Enterococcus faecium [20]): 8 µg/mL
Ratio [21]: >4
Ratio [22]: >4
fractional inhibitory concentration index (FICI) (Staphylococcus aureus [23]): 0.3125
MIC (Staphylococcus aureus [24]): 16 µg/mL
MIC (Staphylococcus aureus [25]): 4 µg/mL
Activity (Bacillus subtilis [26]): 30 um
Activity (Staphylococcus aureus [27]): Active
Activity [28]: Active
Kb [29]: 2.08 10^5/M
Activity [30]: Active
Activity [31]: Active
Activity [32]: Active
Activity [33]: Active
Kd [34]: 3.86 µM
IC5 (Erythrocyte): 32 µg/mL
IC50 at 48 h [35]: 11.3 µg/mL
IC50 at 48 h [36]: 8.89 µg/mL
MIC (Staphylococcus aureus [37]): 2 µg/mL
MIC (Staphylococcus aureus [38]): 2 µg/mL
fold change (FC) (Staphylococcus aureus [39]): 8
Activity (Bacillus subtilis [40]): Active

CO[C@H]1/C=C/O[C@@]2(C)Oc3c(C)c(O)c4c(O)c(c(/C=N/N5CCN(C)CC5)c(O)c4c3C2=O)NC(=O)/C(C)=C\C=C\[C@H](C)[C@H](O)[C@@H](C)[C@@H](O)[C@@H](C)[C@H](OC(C)=O)[C@@H]1C [RIFAMPIN]
MIC (Staphylococcus aureus [4]): 0.5 µg/mL (≈ 0.608 µM)
MIC (Staphylococcus aureus [5]): < 0.125 µg/mL
MIC (Staphylococcus aureus [6]): > 64 µg/mL
MIC (Staphylococcus aureus [7]): < 0.125 µg/mL
MIC (Staphylococcus aureus [8]): 0.125 µg/mL (≈ 0.152 µM)
MIC [9]: 1 µg/mL (≈ 1.22 µM)
MIC (Bacillus subtilis [10]): 0.125 µg/mL (≈ 0.152 µM)
MIC (Enterococcus faecium [11]): < 0.125 µg/mL
MIC (Enterococcus faecalis): 0.125 µg/mL (≈ 0.152 µM)
MIC (Enterococcus faecium [12]): < 0.125 µg/mL
MIC (Enterococcus faecium [13]): 8 µg/mL (≈ 9.72 µM)
MIC (Escherichia coli [14]): 2 µg/mL (≈ 2.43 µM)
MIC (Escherichia coli [15]): 8 µg/mL (≈ 9.72 µM)
MIC (Escherichia coli [16]): > 64 µg/mL
MIC (Acinetobacter baumannii): > 64 µg/mL
MIC (Pseudomonas aeruginosa): > 64 µg/mL
MIC (Klebsiella pneumoniae): > 64 µg/mL
fold change (FC) (Staphylococcus aureus [39]): 4096
